In patent publication US20230064324A1, “NEW USES FOR STEVIOL” (SUNTORY HOLDINGS LIMITED, priority 2019, published 2023):
Like-named read-outs stand apart in the source and are kept apart here.

Columns and labels:
GRP78 [1] = test: GRP78 expression in pancreatic cells (βTC6) under endoplasmic reticulum stress (RT-PCR); type: cell-based, Mouse; settings: pretreatment 4 h, tunicamycin 0.16 μM 24 h
Procedure: (§1) The lysate was preserved at −80° C. until use.
(§2) The internal standard gene used was GAPDH gene.

CHOP [2] = test: CHOP expression in neuronal cells under endoplasmic reticulum stress (RT-PCR); type: cell-based, Rat; settings: pretreatment 1 h, tunicamycin 0.16 μM 24 h
Procedure: (§3) Neuronal cells were prepared as follows. PC12 cells were reconstituted by seeding at 2×10^6 cells/flask to a collagen IV-coated flask, and precultured for 3 days in the growth medium in a CO2 incubator.
as §1, §2

GRP78 [3] = test: GRP78 expression in adipocytes under endoplasmic reticulum stress (RT-PCR); type: cell-based, Human; settings: pretreatment 24 h, tunicamycin 0.65 μM 24 h
Procedure: (§4) Adipocytes were prepared as follows. Normal human subcutaneous preadipocytes were reconstituted in a T75 flask using a growth medium (PBM-2 medium, Cat. No. PT-8002, Lonza, supplemented with 10% FBS, 2 mM L-glutamine, 50 μg/mL gentamycin, and 37 ng/mL amphotericin-B), and precultured for 3 days in a CO2 incubator (37° C., 5% CO2; the same holds true for the description below).
as §1, §2

CHOP [4] = test: CHOP expression in pancreatic cells (βTC6) under endoplasmic reticulum stress (RT-PCR); type: cell-based, Mouse; settings: pretreatment 4 h, tunicamycin 0.16 μM 24 h
Procedure: as §1, §2

CHOP [5] = test: CHOP expression in adipocytes under endoplasmic reticulum stress (RT-PCR); type: cell-based, Human; settings: pretreatment 24 h, tunicamycin 0.65 μM 24 h
Procedure: as §4, §1, §2

GRP78 [6] = test: GRP78 expression in neuronal cells under endoplasmic reticulum stress (RT-PCR); type: cell-based, Rat; settings: pretreatment 24 h, tunicamycin 1.0 μM 24 h
Procedure: as §3, §1, §2

GRP78 [7] = settings: pretreatment 4 h, tunicamycin 0.65 μM 24 h
Procedure: (§5) Steviol was evaluated for its influence on endoplasmic reticulum stress in each type of cell by using endoplasmic reticulum stress markers CHOP and GRP78 as an index. The test cells used were neuronal cells (induced from PC12 cells), adipocytes (normal human subcutaneous preadipocytes, Cat. No. PT-5020, Lonza Group AG), hepatocytes (HepG2, Cat. No. JCRB1054, JCRB) and pancreatic cells (βTC6, ATCC® CRL-11506).
(§6) Hepatocytes were prepared as follow. HepG2 cells were seeded to a T75 flask and precultured for 1 day in a CO2 incubator using a growth medium (DMEM (high glucose, Cat. No. D5796, Sigma-Aldrich) supplemented with 10% FBS (Cat. No. 172012, Sigma-Aldrich), 1% penicillin-streptomycin (Cat. No. 09367-34, Nacalai Tesque, Inc.)).
(§7) 4PA (P21005, Sigma-Aldrich Co., LLC) was dissolved in a medium and then added at a predetermined concentration to a differentiation medium or a growth medium.
(§8) After the completion of endoplasmic reticulum stress induction treatment, the expression levels of CHOP and GRP78 were measured to evaluate the degree of endoplasmic reticulum stress. First, FasteLane lysate (RNA) was prepared for RNA extraction using FastLane Cell Probe kit (Cat. No. 216413, Qiagen N.V.). After removal of the medium, each well was washed by the addition of 125 μL of Buffer FCW and its immediate removal. Then, 50 μL of Cell processing mix was added to each well, followed by incubation at room temperature for 5 minutes to prepare FasteLane lysate. Next, the FasteLane lysate was transferred to a PCR tube and incubated at 75° C. for 5 minutes. The lysate was preserved at −80° C. until use.
(§9) Gene expression analysis was carried out by the following procedures. One Step real-time RT-PCR was performed with the composition of Table 8 using QuantiTect Probe RT-PCR Kit attached to FastLane Cell Probe kit.
(§10) RT-PCR reaction was performed under conditions of 50° C. for 30 minutes, 95° C. for 15 minutes, and (94° C. for 15 seconds and 60° C. for 60 seconds)×40 cycles. The internal standard gene used was GAPDH gene. A relative expression level was calculated by the ΔΔCt method. Significant difference among tunicamycin addition groups (vehicle group vs positive control group/steviol addition group) was tested by the Dunnett test.

CHOP [8] = settings: pretreatment 4 h, tunicamycin 0.65 μM 24 h
Procedure: as §5, §6, §7, §8, §9, §10

PC12 cells (clone HS) = test: Neurite elongation-promoting effect on PC12 cells (neurite length per cell, Operetta CLS); type: cell-based, Rat; settings: positive control, 50 ng/mL NGF, 3 days, negative control=100%
Procedure: PC12 cells (clone HS) were precultured using a growth medium in the same manner as in Example 1. […] The cells thus cultured were subjected to cell membrane staining using Cell Membrane Stain attached to Neurite Outgrowth Staining Kit (Thermo Fisher Scientific Inc.) and nuclear staining using Hoechst 33342 (Cat. No. H3570). Specifically, the medium was replaced with 100 μL of a fixative and staining solution (prepared by adding a 1/1000 amount each of Cell Membrane Stain (1000×) and Hoechst 33342 and a 1/25 amount of a formaldehyde solution (Cat. No. 061-00416, FUJIFILM Wako Pure Chemical Corp.) to DPBS (++) (Cat. No. 14040133, Thermo Fisher Scientific Inc.)), followed by incubation for 20 minutes in a CO2 incubator (5% CO2, 37° C., humid). […] Photographing and quantitative analysis were carried out using Operetta CLS (Perkin Elmer, Inc.), and a neurite length per cell was calculated. Nine fields of view at the center of each well were photographed using a 10× objective lens. A test medium supplemented with 50 ng/mL NGF was used as a positive control, and a vehicle control composed of a differentiation medium supplemented with 0.1% DMSO (final concentration) was used as a negative control.

O=C(O)CCCc1ccccc1 [4PA, reference compound]
Expression level of GRP78 in pancreatic cells (relative to GAPDH, untreated=1) (GRP78 [1]; 4PA 0.3 mM): 2.33
Expression level of GRP78 in pancreatic cells (relative to GAPDH, untreated=1) (GRP78 [1]; 4PA 1 mM): 2.37
Expression level of GRP78 in pancreatic cells (relative to GAPDH, untreated=1) (GRP78 [1]; 4PA 3 mM): 1.66
Expression level of GRP78 in pancreatic cells (relative to GAPDH, untreated=1) (GRP78 [1]; 4PA 10 mM): 1.22
Expression level of CHOP in neuronal cells (relative to GAPDH, untreated=1) (CHOP [2]; 4PA 0.1 mM): 6.04
Expression level of CHOP in neuronal cells (relative to GAPDH, untreated=1) (CHOP [2]; 4PA 0.3 mM): 5.87
Expression level of GRP78 in adipocytes (relative to GAPDH, untreated=1) (GRP78 [3]; 4PA 0.1 mM): 4.78
Expression level of GRP78 in adipocytes (relative to GAPDH, untreated=1) (GRP78 [3]; 4PA 1 mM): 4.25
Expression level of CHOP in pancreatic cells (relative to GAPDH, untreated=1) (CHOP [4]; 4PA 0.3 mM): 2.53
Expression level of CHOP in pancreatic cells (relative to GAPDH, untreated=1) (CHOP [4]; 4PA 1 mM): 1.78
Expression level of CHOP in pancreatic cells (relative to GAPDH, untreated=1) (CHOP [4]; 4PA 3 mM): 1.71
Expression level of CHOP in pancreatic cells (relative to GAPDH, untreated=1) (CHOP [4]; 4PA 10 mM): 2.47
Expression level of CHOP in adipocytes (relative to GAPDH, untreated=1) (CHOP [5]; 4PA 0.1 mM): 3.52
Expression level of CHOP in adipocytes (relative to GAPDH, untreated=1) (CHOP [5]; 4PA 1 mM): 3.22
Expression level of GRP78 in neuronal cells (relative to GAPDH, untreated=1) (GRP78 [6]; 4PA 0.1 mM): 19.72
Expression level of GRP78 in neuronal cells (relative to GAPDH, untreated=1) (GRP78 [6]; 4PA 0.3 mM): 20.05
Expression level of GRP78 in hepatocytes (relative to GAPDH, untreated=1) (GRP78 [7]; 4PA 0.1 mM): 2.82
Expression level of GRP78 in hepatocytes (relative to GAPDH, untreated=1) (GRP78 [7]; 4PA 0.3 mM): 2.49
Expression level of GRP78 in hepatocytes (relative to GAPDH, untreated=1) (GRP78 [7]; 4PA 1 mM): 1.96
Expression level of CHOP in hepatocytes (relative to GAPDH, untreated=1) (CHOP [8]; 4PA 0.1 mM): 3.23
Expression level of CHOP in hepatocytes (relative to GAPDH, untreated=1) (CHOP [8]; 4PA 0.3 mM): 2.79
Expression level of CHOP in hepatocytes (relative to GAPDH, untreated=1) (CHOP [8]; 4PA 1 mM): 2.13

IGF-1: positive control, 100 ng/mL IGF-1 (Cat. No. SRP4121, Sigma-Aldrich)
Expression level of CHOP in neuronal cells (relative to GAPDH, untreated=1) (CHOP [2]; IGF-1 100 ng/mL): 5.97
Expression level of GRP78 in neuronal cells (relative to GAPDH, untreated=1) (GRP78 [6]; IGF-1 100 ng/mL): 19.77

NGF: positive control, 50 ng/mL NGF (Cat. No. 13257019, Thermo Fisher Scientific), differentiation inducer
Relative neurite length (%) (PC12 cells (clone HS)): 269.4%
